{"source": "paper PMC10132538", "about": "“Regulation of the two-pore domain potassium channel, THIK-1 and THIK-2, by G protein coupled receptors” (PLOS ONE, 2023)", "key": {"[1]": {"target": "T1, M1R-YFP / ΔN-THIK-2 channel (Homo sapiens, UniProt P11229)", "T1 construct": "expressed in transfected cells; host or cells: CHO-K1", "T1 sequence (P11229 1-460)": "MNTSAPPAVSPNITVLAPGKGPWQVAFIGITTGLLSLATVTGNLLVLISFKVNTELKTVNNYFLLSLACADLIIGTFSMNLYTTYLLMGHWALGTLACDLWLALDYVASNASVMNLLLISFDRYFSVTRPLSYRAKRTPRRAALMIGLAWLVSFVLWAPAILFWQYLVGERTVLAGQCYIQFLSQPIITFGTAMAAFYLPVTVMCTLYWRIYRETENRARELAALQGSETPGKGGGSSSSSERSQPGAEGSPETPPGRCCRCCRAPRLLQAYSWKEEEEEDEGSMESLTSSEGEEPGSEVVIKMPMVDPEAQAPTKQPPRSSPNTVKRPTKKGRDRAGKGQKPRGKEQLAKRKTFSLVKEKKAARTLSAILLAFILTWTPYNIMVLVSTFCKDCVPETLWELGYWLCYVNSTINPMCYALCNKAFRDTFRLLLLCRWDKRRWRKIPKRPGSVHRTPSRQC", "test": "M1R-YFP-induced increase of ΔN-THIK-2 channel current in CHO-K1 cells", "type": "cell-based, mouse", "conditions": "oxo-M 10 μM", "excerpt": "Coding region of mGu2 (M1-P840) was amplified by conventional PCR with designed primers and the resulting product was subcloned into pEYFP-N1 vector at the BglII and EcoRI sites. The cDNAs for mouse THIK-2 channel and dimeric THIK channels were subcloned into pcDNA3.1(-) vector. To increase the surface membrane expression of the THIK-2 channel, 29 residues (Ser2-Ser30) were removed (ΔN-THIK-2). […] Ci-VSP-IRES-GFP vector was kindly gifted by Dr. Y. Okamura (Osaka University, Osaka, Japan). HEK293T cells or CHO-K1 cells were seeded on glasses and transfected with the plasmid DNAs for THIK channels, receptors and a transfection marker of yellow fluorescent protein (YFP). Electrophysiological experiments were performed 24–72 h after the transfection. […] Pertussis toxin (PTX) was purchased from Wako (Osaka, Japan). […] All reagents were dissolved at high concentration and stored at -20 °C as the stock solutions. The stock reagent solution was diluted at concentrations for the electrophysiological experiments. PTX was solved in the culture medium (final concentration, 300 ng/mL) and cells were incubated in it for more than 16 h. U73122 or U73343 (final concentration, 2 μM each) was dissolved in Hanks’ Balanced Salt Solution (HBSS, Invitrogen, Carlsbad, CA, USA) supplemented with 1 mM Ca^2+ and 0.3 mM Mg^2+. […]"}, "[2]": {"tested_on": "THIK-1 channel", "test": "Basal current (I0) density of THIK-1 channel at 0 mV in HEK293T cells", "type": "cell-based", "conditions": "for Basal current (I0) density of THIK-1 channel: 0 mV, before agonist; for Basal current I0: THIK-1 & M1R", "excerpt": "(§1) Coding region of mGu2 (M1-P840) was amplified by conventional PCR with designed primers and the resulting product was subcloned into pEYFP-N1 vector at the BglII and EcoRI sites. The cDNAs for mouse THIK-2 channel and dimeric THIK channels were subcloned into pcDNA3.1(-) vector. To increase the surface membrane expression of the THIK-2 channel, 29 residues (Ser2-Ser30) were removed (ΔN-THIK-2). […] Ci-VSP-IRES-GFP vector was kindly gifted by Dr. Y. Okamura (Osaka University, Osaka, Japan). HEK293T cells or CHO-K1 cells were seeded on glasses and transfected with the plasmid DNAs for THIK channels, receptors and a transfection marker of yellow fluorescent protein (YFP). Electrophysiological experiments were performed 24–72 h after the transfection. […] Pertussis toxin (PTX) was purchased from Wako (Osaka, Japan). […] All reagents were dissolved at high concentration and stored at -20 °C as the stock solutions. The stock reagent solution was diluted at concentrations for the electrophysiological experiments. PTX was solved in the culture medium (final concentration, 300 ng/mL) and cells were incubated in it for more than 16 h. U73122 or U73343 (final concentration, 2 μM each) was dissolved in Hanks’ Balanced Salt Solution (HBSS, Invitrogen, Carlsbad, CA, USA) supplemented with 1 mM Ca^2+ and 0.3 mM Mg^2+. Cells were incubated in HBSS with U73122 or U73343 for 10 min at room temperature before the whole cell current recording.\n(§2) Composition of bath solution was (in mM) 140 NaCl, 4 KCl, 1 CaCl2, 0.3 MgCl2, 10 HEPES (pH 7.4 adjusted with NaOH). The pipette solution for whole cell patch clamp experiments contained (mM) 130 KCl, 5 Na2-ATP, 3 EGTA, 0.1 CaCl2, 10 HEPES, 4 MgCl2, (pH 7.3 adjusted with KOH). GTP (0.3 mM) was supplemented in the pipette solution. Once the whole cell configuration was established, the cell was held at -80mV and ramp pulses (-120mV to +40mV for 0.4 sec) were applied every 5 sec. Various concentrations of the agonists were applied using a fast perfusion system (VC77SP, Warner Instruments, Hamden, CT, USA). The PKC inhibitor chelerythrine was included in the pipette solution.\n(§3) The amplitude of the THIK-1 channel current at 0 mV was measured from every trace induced by the ramp pulse protocol to minimize the fraction of non-selective cationic leak current. The current amplitude before the agonist application was set as the basal current amplitude (I0). The effects of GPCRs on the THIK-1 channel were evaluated as the ratio of the current amplitude after the agonist application to I0 (Iagonist/I0). The EC50 values were estimated by fitting the concentration response curve to a Hill equation (Origin2016; OriginLab, Northampton, MA, USA). […] The effects of A2aR on the Gi/o-R-induced current increase of the THIK-1 channel was estimated as follows. […] All data are shown as means and S.D. The statistical significance between two or more than two groups was estimated by unpaired Student’s t-test or by a one-way analysis of variance (ANOVA) followed by Tukey’s test, respectively. […] Values of p≤ 0.05 were considered as statistically significant (***:p≤0.001, **:0.001<p≤0.01, *:0.01<p≤0.05, n.s.:p>0.05)."}, "[3]": {"tested_on": "intracellular cAMP (Gs signaling, A2aR)", "test": "Intracellular cAMP, FRET based cAMP indicator in HEK293T cells", "type": "cell-based", "conditions": "NECA 10 μM", "description": "HEK293T cells were culture on the glass bottom dishes and transfected with cDNAs for FRET based cAMP indicators and A2aR. […] transfection, cells were incubated in bath solution containing (mM) 140 NaCl, 1 CaCl2, 4 KCl, 0.3 MgCl2, 10 HEPES (pH was adjusted to 7.4 with NaOH) and fluorescent signals were acquired as previously described. CFP was excited by 442 nm laser line and emitted light was passed through S470/30 and S535/30 filters (Chroma), respectively. The fluorescence images were then amplified by an image intensifier unit (C8600, Hamamatsu Photonics) and recorded every 5 s using a cooled CCD camera (Qimage Retiga 6000, Roper Scientific). A laser switching controller (Olympus) was operated by using MetaFluor imaging software (Universal Imaging). The fluorescent intensities of CFP and YFP upon the CFP excitation were measured from fluorescent cells and cell free background.\nTime dependent changes of the FRET efficiency of the FRET based cAMP indicator (FFRET/FCFP) are shown. Black bars show the application of the reagents, which was carried out by perfusion of the chamber (0.2-0.3 mL bath volume) with bath solution (1 mL) containing the reagent. […] The decrease in FRET were thought to be caused by the activation of the endogenous A2aR (Fig. S2E). Symbols show mean and SD."}, "[4]": {"target": "T2, M1R (Homo sapiens, UniProt P11229)", "T2 construct": "expressed in transfected cells; host or cells: HEK293T", "T2 sequence (P11229 1-460)": "T1 sequence (P11229 1-460)", "test": "M1R-induced increase of THIK-1 channel current, whole cell patch clamp in HEK293T cells", "type": "cell-based", "conditions": "for Ioxo/I0: oxo-M 10 μM", "excerpt": "as §1, §2, §3"}, "[5]": {"tested_on": "THIK-1 channel", "parameters": "method as in PMID 24081450", "conditions": "cited from earlier work"}, "[6]": {"conditions": "chelerythrine 3 μM in pipette solution"}, "[7]": {"conditions": "chelerythrine 10 μM in pipette solution"}, "[8]": {"conditions": "chelerythrine 30 μM in pipette solution"}}, "data": [{"compound": "COc1ccc2c(c1)CC[C@@H]1[C@@H]2CC[C@]2(C)[C@@H](NCCCCCCN3C(=O)CCC3=O)CC[C@@H]12", "note": "[U73343]", "values": [{"measurement": "effect of M1R-YFP on ΔN-THIK-2 channel after PLC reagent", "setting": "[1]", "value": "not"}, {"measurement": "Basal current (I0) density of THIK-1 channel", "setting": "[2]; THIK-1 + M1R, PLC reagent 2 μM 10 min", "value": "46.5 ± 22.3 (10)^n.s pA/pF"}, {"measurement": "Basal current (I0) density of THIK-1 channel", "setting": "[2]; THIK-1 + M3R, PLC reagent 2 μM 10 min", "value": "113.3 ± 122.1 (7)^n.s pA/pF"}, {"measurement": "Basal current (I0) density of THIK-1 channel", "setting": "[2]; THIK-1 + mGlu1, PLC reagent 2 μM 10 min", "value": "121.0 ± 104.7 (12)^n.s pA/pF"}]}, {"compound": "CCNC(=O)[C@H]1O[C@@H](n2cnc3c(N)ncnc32)[C@H](O)[C@@H]1O", "note": "[NECA, 5’-N-ethylcarboxamidoadenosine]", "values": [{"measurement": "Gs signaling (cAMP indicator)", "setting": "[3]; HEK293T transfected with heterologous A2aR", "value": "fully activated"}, {"measurement": "intracellular cAMP", "setting": "[3]; HEK293T without heterologous A2aR (endogenous A2aR), effect partial", "value": "increased the intracellular cAMP"}]}, {"compound": "COc1ccc2c(c[n+](C)c3c4cc5c(cc4ccc23)OCO5)c1OC", "note": "[chelerythrine, Chelerythrine]", "values": [{"measurement": "Basal current I0", "setting": "[2]; [6]", "value": "43.1 ± 46.8 ^n.s. pA/pF"}, {"measurement": "Basal current I0", "setting": "[2]; [7]", "value": "56.4 ± 46.7 ^n.s. pA/pF"}, {"measurement": "Basal current I0", "setting": "[2]; [8]", "value": "22.8 ± 15.5 ^n.s. pA/pF"}, {"measurement": "effect of PKC inhibitor on the effect of M1R", "setting": "[4]; 3–30 μM in the pipette solution", "value": "did not inhibit the effect of M1R"}, {"measurement": "Ioxo/I0", "setting": "[4]; [6]", "value": "4.4 ± 2.4 ^n.s."}, {"measurement": "Ioxo/I0", "setting": "[4]; [7]", "value": "2.2 ± 0.6 ^n.s."}, {"measurement": "Ioxo/I0", "setting": "[4]; [8]", "value": "2.7 ± 1.0 ^n.s."}]}, {"compound": "CCCCCCCCCCCCCC(=O)O[C@@H]1[C@@H](C)[C@@]2(O)[C@@H](C=C(CO)C[C@]3(O)C(=O)C(C)=C[C@@H]23)[C@@H]2C(C)(C)[C@]12OC(C)=O", "note": "[phorbol myristate acetate]", "values": [{"measurement": "activation of the THIK-1 channel", "setting": "[5]", "value": "did not activate"}]}]}
